From article PMC5218480 (PLoS ONE, 2017)

Tested on: MV-4-11 cells
Assay: Gene expression microarray analysis (Affymetrix PrimeView) and GSEA
Assay type: cell-based, human
Design: RFU PODN (11730768_x_at) / Fold change /veh PODN (11730768_x_at) / RFU LINC00158 (11744669_a_at) / Fold change /veh LINC00158 (11744669_a_at) / RFU DUSP10 (11751237_a_at) / Fold change /veh DUSP10 (11751237_a_at) / RFU ID3 (11757404_x_at) / Fold change /veh ID3 (11757404_x_at) / RFU PLEKHG5 (11737974_s_at) / Fold change /veh PLEKHG5 (11737974_s_at) / RFU LRRC4B (11730491_at) / Fold change /veh LRRC4B (11730491_at) / RFU GIMAP4 (11747438_a_at) / Fold change /veh GIMAP4 (11747438_a_at) / RFU KRT8 (11758183_x_at) / Fold change /veh KRT8 (11758183_x_at) / RFU CNN1 (11734310_a_at) / Fold change /veh CNN1 (11734310_a_at) / RFU VPS37D (11726825_at) / Fold change /veh VPS37D (11726825_at) / RFU C10orf10 (11716522_x_at) / Fold change /veh C10orf10 (11716522_x_at) / RFU KIR2DL2 /// KIR2DL4 /// KIR2DL5A /// KIR2DL5B /// KIR2DS1 /// KIR2DS2 /// KIR2DS3 /// KIR2DS4 /// KIR3DL3 /// KIR3DL3 /// KIR3DS1 (11738374_at) / Fold change /veh KIR2DL2 /// KIR2DL4 /// KIR2DL5A /// KIR2DL5B /// KIR2DS1 /// KIR2DS2 /// KIR2DS3 /// KIR2DS4 /// KIR3DL3 /// KIR3DL3 /// KIR3DS1 (11738374_at) / RFU C1QL1 (11718748_at) / Fold change /veh C1QL1 (11718748_at) / RFU TMPRSS4 (11747572_a_at) / Fold change /veh TMPRSS4 (11747572_a_at) / RFU HAMP (11756126_x_at) / Fold change /veh HAMP (11756126_x_at) / RFU RNFT2 (11725882_a_at) / Fold change /veh RNFT2 (11725882_a_at) / RFU NR4A2 (11747474_a_at) / Fold change /veh NR4A2 (11747474_a_at) / RFU ABCC12 (11746883_a_at) / Fold change /veh ABCC12 (11746883_a_at) / RFU TMEM136 (11760407_x_at) / Fold change /veh TMEM136 (11760407_x_at) / RFU CLDN22 /// WWC2 (11732394_at) / Fold change /veh CLDN22 /// WWC2 (11732394_at) / RFU HLA-DPB1 (11760878_x_at) / Fold change /veh HLA-DPB1 (11760878_x_at) / RFU SPINT1 (11716480_a_at) / Fold change /veh SPINT1 (11716480_a_at) / RFU GAP43 (11754022_s_at) / Fold change /veh GAP43 (11754022_s_at) / RFU A4GNT (11735810_at) / Fold change /veh A4GNT (11735810_at) / RFU PRB3 (11715151_x_at) / Fold change /veh PRB3 (11715151_x_at) / RFU TUBB4B (11761932_at) / Fold change /veh TUBB4B (11761932_at) / RFU CAPN14 (11732068_a_at) / Fold change /veh CAPN14 (11732068_a_at) / RFU TMCC2 (11721928_a_at) / Fold change /veh TMCC2 (11721928_a_at) / RFU IRGQ (11745062_a_at) / Fold change /veh IRGQ (11745062_a_at) / RFU FAM174B (11720279_a_at) / Fold change /veh FAM174B (11720279_a_at) / RFU TMPRSS4 (11748680_a_at) / Fold change /veh TMPRSS4 (11748680_a_at) / RFU FAM212B (11763350_a_at) / Fold change /veh FAM212B (11763350_a_at) / RFU PLEKHG5 (11743358_a_at) / Fold change /veh PLEKHG5 (11743358_a_at) / RFU ZSCAN30 (11745921_a_at) / Fold change /veh ZSCAN30 (11745921_a_at) / RFU CMKLR1 (11741424_a_at) / Fold change /veh CMKLR1 (11741424_a_at) / RFU LOC101060620 /// MAPK8IP1 (11723275_at) / Fold change /veh LOC101060620 /// MAPK8IP1 (11723275_at) / RFU SPTSSB (11747773_x_at) / Fold change /veh SPTSSB (11747773_x_at) / RFU PRSS12 (11739890_at) / Fold change /veh PRSS12 (11739890_at) / RFU BIN1 (11741810_x_at) / Fold change /veh BIN1 (11741810_x_at) / RFU WNT11 (11732464_a_at) / Fold change /veh WNT11 (11732464_a_at) / RFU C10orf10 (11716521_a_at) / Fold change /veh C10orf10 (11716521_a_at) / RFU C5orf56 (11738089_at) / Fold change /veh C5orf56 (11738089_at) / RFU CYB561 (11721691_x_at) / Fold change /veh CYB561 (11721691_x_at) / RFU ANKRD19P (11752326_a_at) / Fold change /veh ANKRD19P (11752326_a_at) / RFU OR2T12 /// OR2T33 /// OR2T8 (11738714_s_at) / Fold change /veh OR2T12 /// OR2T33 /// OR2T8 (11738714_s_at) / RFU VCAN (11748164_a_at) / Fold change /veh VCAN (11748164_a_at) / RFU JSRP1 (11732532_at) / Fold change /veh JSRP1 (11732532_at) / RFU KRTAP10-11 (11738290_x_at) / Fold change /veh KRTAP10-11 (11738290_x_at) / RFU MYO3A (11730013_a_at) / Fold change /veh MYO3A (11730013_a_at) / RFU EBF3 (11725865_a_at) / Fold change /veh EBF3 (11725865_a_at) / RFU CAMK2N1 (11719241_x_at) / Fold change /veh CAMK2N1 (11719241_x_at) / RFU C5orf56 (11738088_a_at) / Fold change /veh C5orf56 (11738088_a_at) / RFU OLFML3 (11715873_a_at) / Fold change /veh OLFML3 (11715873_a_at) / RFU LOC100653217 /// NTM (11731650_a_at) / Fold change /veh LOC100653217 /// NTM (11731650_a_at) / RFU MAPK11 (11762145_a_at) / Fold change /veh MAPK11 (11762145_a_at) / RFU FIZ1 (11724087_x_at) / Fold change /veh FIZ1 (11724087_x_at) / RFU OASL (11726364_x_at) / Fold change /veh OASL (11726364_x_at) / RFU SOX15 (11748057_x_at) / Fold change /veh SOX15 (11748057_x_at) / RFU CD79A (11719716_a_at) / Fold change /veh CD79A (11719716_a_at) / RFU HIST1H1D (11736915_at) / Fold change /veh HIST1H1D (11736915_at) / RFU CASKIN2 (11723855_a_at) / Fold change /veh CASKIN2 (11723855_a_at) / RFU LOC730098 (11760151_x_at) / Fold change /veh LOC730098 (11760151_x_at) / RFU OR4N2 (11742367_at) / Fold change /veh OR4N2 (11742367_at) / RFU PRRT2 (11749266_a_at) / Fold change /veh PRRT2 (11749266_a_at) / RFU SNX32 (11753110_a_at) / Fold change /veh SNX32 (11753110_a_at) / RFU CDHR5 (11726645_a_at) / Fold change /veh CDHR5 (11726645_a_at) / RFU RCAN1 (11760418_a_at) / Fold change /veh RCAN1 (11760418_a_at) / RFU FAM167A (11723789_a_at) / Fold change /veh FAM167A (11723789_a_at) / RFU FAM26E (11764081_at) / Fold change /veh FAM26E (11764081_at) / RFU ISYNA1 (11749810_s_at) / Fold change /veh ISYNA1 (11749810_s_at) / RFU ACY1 (11761880_at) / Fold change /veh ACY1 (11761880_at) / RFU 11764098_at / Fold change /veh 11764098_at / RFU SAMD14 (11745864_x_at) / Fold change /veh SAMD14 (11745864_x_at) / RFU NPB (11741838_a_at) / Fold change /veh NPB (11741838_a_at) / RFU TMPRSS6 (11731388_a_at) / Fold change /veh TMPRSS6 (11731388_a_at) / RFU KRTAP10-2 (11738614_at) / Fold change /veh KRTAP10-2 (11738614_at) / RFU ARHGAP8 /// PRR5-ARHGAP8 (11727945_x_at) / Fold change /veh ARHGAP8 /// PRR5-ARHGAP8 (11727945_x_at) / RFU KRTAP5-7 /// NADSYN1 (11734609_at) / Fold change /veh KRTAP5-7 /// NADSYN1 (11734609_at) / RFU RASL12 (11751679_a_at) / Fold change /veh RASL12 (11751679_a_at) / RFU CDKN2B (11736163_a_at) / Fold change /veh CDKN2B (11736163_a_at) / RFU PRF1 (11729649_at) / Fold change /veh PRF1 (11729649_at) / RFU, ZNF638 /// ZNF638-IT1 / Fold change vs veh, ZNF638 /// ZNF638-IT1 / RFU, PANK3 / Fold change vs veh, PANK3 / RFU, SH3YL1 / Fold change vs veh, SH3YL1 / RFU, ZEB2 / Fold change vs veh, ZEB2 / RFU, NRIP1 / Fold change vs veh, NRIP1 / RFU, PTTG1IP / Fold change vs veh, PTTG1IP / RFU, CAPN2 / Fold change vs veh, CAPN2 / RFU, MED14 / Fold change vs veh, MED14 / RFU, SNORA58 / Fold change vs veh, SNORA58 / RFU, C1orf63 / Fold change vs veh, C1orf63 / RFU, LRRFIP1 / Fold change vs veh, LRRFIP1 / RFU, NDUFAF7 / Fold change vs veh, NDUFAF7 / RFU, SLC12A2 / Fold change vs veh, SLC12A2 / RFU, IBTK / Fold change vs veh, IBTK / RFU, ESF1 / Fold change vs veh, ESF1 / Fold change vs veh, TMEM50B / RFU, TAOK1 / Fold change vs veh, TAOK1 / RFU, ACBD3 / Fold change vs veh, ACBD3 / RFU, TMA16 / Fold change vs veh, TMA16 / RFU, RWDD3 / Fold change vs veh, RWDD3 / RFU, BCAT1 / Fold change vs veh, BCAT1 / RFU, EDEM3 / Fold change vs veh, EDEM3 / RFU, TMEM33 / Fold change vs veh, TMEM33 / RFU, WDR75 / Fold change vs veh, WDR75 / RFU, AHCTF1 / Fold change vs veh, AHCTF1 / RFU, TFRC / Fold change vs veh, TFRC / RFU, ZDHHC17 / Fold change vs veh, ZDHHC17 / RFU, NOM1 / Fold change vs veh, NOM1 / RFU, ARL8B / Fold change vs veh, ARL8B / RFU, ZBTB11 / Fold change vs veh, ZBTB11 / RFU, TAMM41 / Fold change vs veh, TAMM41 / RFU, KIAA1704 /// LOC100996395 / Fold change vs veh, KIAA1704 /// LOC100996395 / RFU, ING1 / Fold change vs veh, ING1 / RFU, TRMT61B / Fold change vs veh, TRMT61B / RFU, FUBP3 / Fold change vs veh, FUBP3 / RFU, TP53 / Fold change vs veh, TP53 / RFU, TNKS2 / Fold change vs veh, TNKS2 / RFU, ZFP14 / Fold change vs veh, ZFP14 / RFU, ACTR2 / Fold change vs veh, ACTR2 / RFU, PPP3R1 / Fold change vs veh, PPP3R1 / RFU, PIK3R1 / Fold change vs veh, PIK3R1 / RFU, HNRNPA1 / Fold change vs veh, HNRNPA1 / RFU, RNF170 / Fold change vs veh, RNF170 / RFU, ZNF28 / Fold change vs veh, ZNF28 / RFU, RNGTT / Fold change vs veh, RNGTT / RFU, OGT / Fold change vs veh, OGT / RFU, BRD1 / Fold change vs veh, BRD1 / RFU, MARS / Fold change vs veh, MARS / RFU, ZNF655 / Fold change vs veh, ZNF655 / RFU, FAHD1 / Fold change vs veh, FAHD1 / RFU, BDP1 / Fold change vs veh, BDP1 / RFU, LRRCC1 / Fold change vs veh, LRRCC1 / RFU, ARID1A / Fold change vs veh, ARID1A / RFU, ZNF146 / Fold change vs veh, ZNF146 / RFU, ZNF330 / Fold change vs veh, ZNF330 / RFU, GPN3 / Fold change vs veh, GPN3 / RFU, C9orf123 / Fold change vs veh, C9orf123 / RFU, N4BP2L2 / Fold change vs veh, N4BP2L2 / RFU, ARFIP1 / Fold change vs veh, ARFIP1 / RFU, FAM179B / Fold change vs veh, FAM179B / RFU, BCL10 / Fold change vs veh, BCL10 / RFU, UHRF1BP1L / Fold change vs veh, UHRF1BP1L / RFU, BET1 / Fold change vs veh, BET1 / RFU, CNOT2 / Fold change vs veh, CNOT2 / RFU, ZNF268 / Fold change vs veh, ZNF268 / Fold change vs veh, ZNF507 / RFU, DGCR2 / Fold change vs veh, DGCR2 / RFU, WDSUB1 / Fold change vs veh, WDSUB1 / Fold change vs veh, HSP90B1 /// MIR3652 / RFU, ADSS / Fold change vs veh, ADSS / RFU, GK / Fold change vs veh, GK / RFU, ZNF148 / Fold change vs veh, ZNF148 / RFU, TAF9 / Fold change vs veh, TAF9 / RFU, SLC1A5 / Fold change vs veh, SLC1A5 / RFU, SLMO2 / Fold change vs veh, SLMO2 / RFU, ABCC4 / Fold change vs veh, ABCC4 / RFU, LOC101060439 /// RAP1B / Fold change vs veh, LOC101060439 /// RAP1B / RFU, RFX7 / Fold change vs veh, RFX7 / RFU, GTPBP10 / Fold change vs veh, GTPBP10 / RFU, CNEP1R1 / Fold change vs veh, CNEP1R1 / RFU, BIVM-ERCC5 /// ERCC5 / Fold change vs veh, BIVM-ERCC5 /// ERCC5 / RFU, ILF3 / Fold change vs veh, ILF3 / RFU 11762660_at / Fold change /veh 11762660_at / RFU VCAN (11757783_s_at) / Fold change /veh VCAN (11757783_s_at) / RFU DDX43 (11728927_at) / Fold change /veh DDX43 (11728927_at) / RFU KRT8 (11758188_x_at) / Fold change /veh KRT8 (11758188_x_at) / RFU NKD1 (11759106_at) / Fold change /veh NKD1 (11759106_at) / RFU SRD5A1 (11742802_a_at) / Fold change /veh SRD5A1 (11742802_a_at) / RFU TPSAB1 /// TPSB2 (11721975_s_at) / Fold change /veh TPSAB1 /// TPSB2 (11721975_s_at) / RFU GSTM3 (11746129_a_at) / Fold change /veh GSTM3 (11746129_a_at) / RFU IL23R (11737362_x_at) / Fold change /veh IL23R (11737362_x_at) / RFU TMEM51 (11727254_a_at) / Fold change /veh TMEM51 (11727254_a_at) / RFU PIWIL2 (11732686_x_at) / Fold change /veh PIWIL2 (11732686_x_at) / RFU ORM1 (11744905_x_at) / Fold change /veh ORM1 (11744905_x_at) / RFU CCDC152 (11743942_at) / Fold change /veh CCDC152 (11743942_at) / RFU ECM1 (11717891_a_at) / Fold change /veh ECM1 (11717891_a_at) / RFU IL23R (11748794_a_at) / Fold change /veh IL23R (11748794_a_at) / RFU TNFAIP8L3 (11732012_x_at) / Fold change /veh TNFAIP8L3 (11732012_x_at) / RFU MBOAT4 (11741988_at) / Fold change /veh MBOAT4 (11741988_at) / RFU 11764193_at / Fold change /veh 11764193_at / RFU TMEM53 (11763286_at) / Fold change /veh TMEM53 (11763286_at) / RFU MAGEB2 (11727129_at) / Fold change /veh MAGEB2 (11727129_at) / RFU TMEM200A (11744735_a_at) / Fold change /veh TMEM200A (11744735_a_at) / RFU CCDC152 (11751479_a_at) / Fold change /veh CCDC152 (11751479_a_at) / RFU FAM211A (11726209_a_at) / Fold change /veh FAM211A (11726209_a_at) / RFU RGS16 (11746705_a_at) / Fold change /veh RGS16 (11746705_a_at) / RFU VCAN (11755009_s_at) / Fold change /veh VCAN (11755009_s_at) / RFU RHOB (11743442_s_at) / Fold change /veh RHOB (11743442_s_at) / RFU RGS16 (11720943_a_at) / Fold change /veh RGS16 (11720943_a_at) / RFU RGS16 (11720944_at) / Fold change /veh RGS16 (11720944_at) / RFU, VPS4B / Fold change vs veh, VPS4B / RFU, CREB1 / Fold change vs veh, CREB1 / RFU, DNAJC13 / Fold change vs veh, DNAJC13 / RFU, GNAQ / Fold change vs veh, GNAQ / RFU, CDK5R1 / Fold change vs veh, CDK5R1 / RFU, ZRANB3 / Fold change vs veh, ZRANB3 / RFU, CUL4A / Fold change vs veh, CUL4A / RFU, CCNY / Fold change vs veh, CCNY / RFU, UFL1 / Fold change vs veh, UFL1 / RFU, COG3 / Fold change vs veh, COG3 / RFU, DIAPH2 / Fold change vs veh, DIAPH2 / RFU, SKA2 / Fold change vs veh, SKA2 / RFU, AFF3 / Fold change vs veh, AFF3 / RFU, LMF1 / Fold change vs veh, LMF1 / RFU, IPO11 / Fold change vs veh, IPO11 / RFU, DFFB / Fold change vs veh, DFFB / RFU, FOXP1 / Fold change vs veh, FOXP1 / RFU, CARD8 / Fold change vs veh, CARD8 / RFU, STRN3 / Fold change vs veh, STRN3 / RFU, ADK / Fold change vs veh, ADK / RFU, RASSF2 / Fold change vs veh, RASSF2 / RFU, WIPF1 / Fold change vs veh, WIPF1 / RFU, LARP1B / Fold change vs veh, LARP1B / RFU, RASA1 / Fold change vs veh, RASA1 / RFU, RB1 / Fold change vs veh, RB1 / RFU, PPFIA1 / Fold change vs veh, PPFIA1 / RFU, MAT2A / Fold change vs veh, MAT2A / RFU, CCT5 / Fold change vs veh, CCT5 / RFU, WDR92 / Fold change vs veh, WDR92 / RFU, CUX1 / Fold change vs veh, CUX1 / RFU, TTC7A / Fold change vs veh, TTC7A / RFU, TMEM135 / Fold change vs veh, TMEM135 / RFU, DEPTOR / Fold change vs veh, DEPTOR / RFU, CPM / Fold change vs veh, CPM / RFU, DNAJB6 / Fold change vs veh, DNAJB6 / RFU, CACNA2D3 / Fold change vs veh, CACNA2D3 / RFU, DTX4 / Fold change vs veh, DTX4 / RFU, TFCP2 / Fold change vs veh, TFCP2 / RFU, GMCL1 /// GMCL1P1 / Fold change vs veh, GMCL1 /// GMCL1P1 / RFU, AEBP2 / Fold change vs veh, AEBP2 / RFU, SNHG1 /// SNORD22 /// SNORD25 /// SNORD26 /// SNORD27 /// SNORD28 /// SNORD29 /// SNORD31 / Fold change vs veh, SNHG1 /// SNORD22 /// SNORD25 /// SNORD26 /// SNORD27 /// SNORD28 /// SNORD29 /// SNORD31 / Fold change (Aza/veh), C12orf56 (ProbeSet 11735607_a_at) / Fold change (ACY-1035/veh), C12orf56 (ProbeSet 11735607_a_at) / Fold change (Aza/veh), FGFR1OP (ProbeSet 11751329_s_at) / Fold change (ACY-1035/veh), FGFR1OP (ProbeSet 11751329_s_at) / Fold change (Aza/veh), VPS36 (ProbeSet 11739960_a_at) / Fold change (ACY-1035/veh), VPS36 (ProbeSet 11739960_a_at) / RFU SYPL1 (11715823_x_at) / Fold change /veh SYPL1 (11715823_x_at) / RFU IGFBP7 (11715501_s_at) / Fold change /veh IGFBP7 (11715501_s_at) / RFU REEP3 (11722064_at) / Fold change /veh REEP3 (11722064_at) / RFU IGLL1 (11728026_x_at) / Fold change /veh IGLL1 (11728026_x_at): dose or concentration left out as unconfirmed
Settings: ProbeSet 11729173_a_at; LIST D

Nc1ccc(-c2cccs2)cc1NC(=O)c1ccc2c(c1)cc(C1CC1)n2CCN1CCOCC1 [ACY-1035]
RFU, SKA2: 338.69 RFU
